Laboratory results taken from PubChem BioAssay (NCI).
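These data come from cells grown in 96-well plates and exposed to compound for 48 hours at five concentrations. GI50 = concentration required for 50% inhibition of growth. TGI is the concentration that stops growth completely.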 Where a SMILES comes first, the peptide text is derived from it. Bridges are numbered along the chain shown (N, C = ends). [ ]: non-standard residue; d: D form. The star is where a group is joined. ξ: configuration not given here. X26 = O=C(/C=C/C=C/C=C/C=C/C=C/C(=O)*)NC1=C(O)CCC1=O; NMeA = CN[C@@H](C)C(=O)O; ξF = NC(Cc1ccccc1)C(=O)O; ξA = CC(N)C(=O)O

Legend:
Experiment in all cases: NCI tumour cell line growth inhibition, 48 h
[1] = test system: HCT-116 colon
[2] = test system: RXF 393 renal
[3] = test system: K-562 leukemia
[4] = test system: T-47D breast
[5] = test system: CCRF-CEM leukemia
[6] = test system: MDA-MB-231 breast
[7] = test system: UO-31 renal
[8] = test system: SK-MEL-2 melanoma
[9] = test system: SN12C renal
[10] = test system: SF-539 CNS

Row | SMILES | TGI [1] [µM] | TGI [2] [µM] | TGI [3] [µM] | TGI [4] [µM] | TGI [5] [µM] | TGI [6] [µM] | TGI [7] [µM] | TGI [8] [µM] | TGI [9] [µM] | TGI [10] [µM] | GI50 [1] [µM] | GI50 [2] [µM] | GI50 [3] [µM] | GI50 [4] [µM] | GI50 [5] [µM] | GI50 [6] [µM] | GI50 [7] [µM] | GI50 [8] [µM] | GI50 [9] [µM] | GI50 [10] [µM]
1 | NNC1=N/C(=C\c2ccco2)C(Cl)=N1 | > 100 | > 100 | 42 | > 100 | > 100 | > 100 | > 100 | > 100 | > 100 | 57.4 |  |  |  |  |  |  |  |  |  | 
2 | O=c1ccn(C2OC(CO)C(P(=O)(O)O)C2O)c(=O)[nH]1 (centres undefined) | > 100 | > 100 | > 100 | > 100 | > 100 | > 100 | > 100 | > 100 | > 100 | > 100 |  |  |  |  |  |  |  |  |  | 
3 | Nc1ccc(-c2nc3ccccc3s2)cc1C(F)(F)F | 26.1 | 21.9 | 46.6 | 20.6 | 95 | 26.3 | 29.4 | 31.3 | 27.3 | 37.7 |  |  |  |  |  |  |  |  |  | 
4 | CC1NC(=O)[C@H](C)N(C)C(=O)[C@@H]2CCCN2C(=O)[C@@H](NC(=O)C(Cc2ccccc2)NC(=O)/C=C/C=C/C=C/C=C/C=C/C(=O)NC2=C(O)CCC2=O)COC(=O)[C@@H]2CCCN2C1=O (some centres undefined) (X26-[ξF]SP[NMeA][ξA]P; ester 2-C) | > 100 | > 100 | > 100 | > 100 | > 100 | > 100 | > 100 | > 100 | > 100 | > 100 |  |  |  |  |  |  |  |  |  | 
5 | Cc1c(N2C(=O)C(Cl)C2c2ccc(Cl)cc2)c(=O)n(-c2ccccc2)n1C (centres undefined) | 36 | > 100 | > 100 | > 100 | > 100 | > 100 | > 100 | > 100 | > 100 | > 100 |  |  |  |  |  |  |  |  |  | 
6 | COC(=O)c1cc2c(cc1CC1Cc3cc4c(cc3C1)CCC4)CCC2 | > 100 | > 100 | > 100 | > 100 | 45.3 | > 100 | > 100 | 54 | > 100 | > 100 |  |  |  |  |  |  |  |  |  | 
7 | COc1nc2ncc([C@@H](OC(C)=O)[C@@H](COC(C)=O)OC(C)=O)nc2c(=O)[nH]1 | > 100 | > 100 | > 100 | > 100 | > 100 | > 100 | > 100 | > 100 | > 100 | > 100 |  |  |  |  |  |  |  |  |  | 
8 | Cc1ccc(OCCn2cc(Nc3ccccc3)c(=O)n(CCOc3ccc(C)cc3)c2=O)cc1 | > 100 | > 100 | > 100 | > 100 | > 100 | > 100 | > 100 | > 100 | > 100 | > 100 |  |  |  |  |  |  |  |  |  | 
9 | COc1cc2cc(Oc3ccc(NC(=O)c4cc(C(F)(F)F)cc(C(F)(F)F)c4)cc3)c(C)nc2cc1OC | > 50 | > 50 | > 50 | > 50 | > 50 | > 50 | > 50 | > 50 | > 50 | > 50 | 1.56 | 2.93 | 2.34 | 2.24 | 2.32 | 2.55 | 2.6 | 15.8 | 3.49 | > 50
10 | Cc1cn(-c2cc(C(=O)Nc3cccc(-n4ccc5c(NC(=O)c6ccccc6)nccc54)c3)cc(C(F)(F)F)c2)cn1 | 1.35 | 0.535 |  | 24.2 | 2.09 | 3.62 | 14.9 | 11.9 | 17.1 | 1.51 | 0.291 | 0.202 | 0.292 | 1.9 | 0.299 | 0.68 | 1.1 | 0.342 | 1.04 | 0.332
11 | COc1cc(-c2cc(=O)c3cc4c(=O)cc(-c5cc(OC)c(OC)c(OC)c5)oc4cc3o2)cc(OC)c1OC | > 100 | 26.4 | > 56 | > 100 | > 100 | > 64.5 | > 100 | 41.3 | > 100 | > 100 |  |  |  |  |  |  |  |  |  | 
12 | COc1ccc(-c2c3c([nH]c(=S)c2C#N)CC(C)(C)CC3=O)cc1 | > 100 | > 100 | > 100 | > 100 | > 100 | > 100 | > 100 | > 100 | > 100 | > 100 |  |  |  |  |  |  |  |  |  | 
13 | CSc1c(C#N)c(N)n(-c2ccc(C)cc2)c(=O)c1C#N | > 100 | > 100 | > 100 | > 100 | > 100 | > 100 | > 100 | > 100 | > 100 | > 100 |  |  |  |  |  |  |  |  |  | 
14 | COC(=O)CN1c2nc(C#N)c(C#N)nc2N(CC(=O)OC)c2nc(C#N)c(C#N)nc21 | 3.77 | 7.09 | > 33.9 | 8.6 | > 24.3 | > 52.9 | > 25.6 | > 100 | > 100 | 24.2 |  |  |  |  |  |  |  |  |  | 
15 | CCc1c[n+]([O-])c(C)cc1[N+](=O)[O-] | > 100 | 60.9 | > 100 | > 100 | > 100 | 80.7 | > 100 | > 100 | > 100 | > 100 |  |  |  |  |  |  |  |  |  | 
16 | CC1(C)C2CC(=O)C1(C)C(O)C2Br (centres undefined) | > 100 | > 100 | > 100 | > 100 | > 100 | > 100 | > 100 | > 100 | > 100 | > 100 |  |  |  |  |  |  |  |  |  | 
17 | CC[n+]1[b-](C(C)(C)C)n(/N=C/C(C)(C)C)[b-](C(C)(C)C)[n+]1CC | > 100 | > 100 | > 100 | > 100 | > 100 | > 100 | > 100 | > 100 | > 100 | > 100 |  |  |  |  |  |  |  |  |  | 
18 | Clc1ccc(CSCCc2ccncc2)cc1Cl | 31.5 | 61.8 | 51 | > 100 | 44.7 | 29.1 | 56.9 | 30.8 | 42.2 | 31.5 |  |  |  |  |  |  |  |  |  | 
19 | O=C(NCCCN(CCCCN(CCCNC(=O)C(F)(F)F)Cc1ccc2ccccc2c1)Cc1ccc2ccccc2c1)C(F)(F)F | > 100 | > 100 | 7.34 | > 100 | > 100 | > 100 | > 100 | > 100 | > 100 | > 100 |  |  |  |  |  |  |  |  |  | 
20 | C[C@@H]1S[C@H](c2ccccc2F)N2Cc3ccccc3N=C12 | 42.2 | 83.9 | 65.9 | 91.4 | > 100 | > 100 | 54 | 34.7 | 42.2 | > 100 |  |  |  |  |  |  |  |  |  | 
21 | COC(C)(C)[C@@H](O)[C@H]1C[C@H](C)[C@@]2(CC[C@]3(C)[C@@H]2CC[C@@H]2[C@@]4(C)CC[C@@H](OC(C)=O)C(C)(C)[C@@H]4C[C@@H](OC4OC(COC(C)=O)C(O)C(O)C4O)[C@]23C)O1 (some centres undefined) | 11.5 | 11.8 | 21.3 | 15.1 | > 37 | 24.9 | 15.5 | 19.7 | 19.4 | 22.1 |  |  |  |  |  |  |  |  |  | 
